Patent US11051515B2, “3-acyl-benzamides and their use as herbicides” (Bayer Aktiengesellschaft, priority 2017, dated 2021)

Assays:
ABUTH [1] = assay: Post-emergence action against ABUTH; type: in vivo, Abutilon theophrasti; settings: post-emergence, dosage 80 g/ha, visual assessment about 3 weeks after treatment vs untreated controls
Method in brief: (§1)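 Post-emergence foliar spray on greenhouse plants at the one-leaf stage, using wettable-powder or emulsion-concentrate formulations in water (600 to […], plus 0.2% wetting agent). Damage scored by eye roughly 3 weeks later against untreated plants: 0% = like control, 100% = dead.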

AMARE [2] = assay: Pre-emergence action against AMARE; type: in vivo, Amaranthus retroflexus; settings: pre-emergence, dosage 320 g/ha, scored visually after 3 weeks vs untreated controls
Method in brief: (§2)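 Seeds sown in sandy loam in wood-fiber pots and covered with soil. Greenhouse growth; visual damage scored after 3 weeks versus untreated controls (100% = dead, 0% = like control).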

VIOTR [3] = assay: Post-emergence action against VIOTR; type: in vivo, Viola tricolor; settings: post-emergence, dosage 80 g/ha
Method in brief: as §1

PHBPU [4] = assay: Post-emergence action against PHBPU; type: in vivo, Pharbitis purpurea; settings: post-emergence, dosage 80 g/ha
Method in brief: as §1

ECHCG [5] = assay: Post-emergence action against ECHCG; type: in vivo, Echinochloa crus-galli; settings: post-emergence, dosage 80 g/ha, visual assessment about 3 weeks after treatment vs untreated controls
Method in brief: as §1

AMARE [6] = assay: Post-emergence action against AMARE; type: in vivo, Amaranthus retroflexus; settings: post-emergence, dosage 80 g/ha, visual assessment about 3 weeks after treatment vs untreated controls
Method in brief: as §1

ECHCG [7] = assay: Pre-emergence action against ECHCG; type: in vivo, Echinochloa crus-galli; settings: pre-emergence, dosage 320 g/ha, scored visually after 3 weeks vs untreated controls
Method in brief: as §2

ABUTH [8] = assay: Pre-emergence action against ABUTH; type: in vivo, Abutilon theophrasti; settings: pre-emergence, dosage 320 g/ha, scored visually after 3 weeks vs untreated controls
Method in brief: as §2

VIOTR [9] = assay: Pre-emergence action against VIOTR; type: in vivo, Viola tricolor; settings: Dosage 320 g/ha, pre-emergence
Method in brief: as §2

VERPE [10] = assay: Pre-emergence action against VERPE; type: in vivo, Veronica persica; settings: Dosage 320 g/ha, pre-emergence
Method in brief: as §2

AVEFA = assay: Post-emergence action against AVEFA; type: in vivo, Avena fatua; settings: post-emergence, dosage 80 g/ha, visual assessment about 3 weeks after treatment vs untreated controls
Method in brief: as §1

DIGSA = assay: Pre-emergence action against DIGSA; type: in vivo, Digitaria sanguinalis; settings: dosage 320 g/ha, scored visually after 3 weeks vs untreated controls
Description: Seeds of monocotyledonous and dicotyledonous weed plants and crop plants are laid out in sandy loam soil in wood-fiber pots and covered with soil. The compounds of the invention, formulated in the form of wettable powders (WP) or as emulsion concentrates (EC), are then applied to the surface of the covering soil in the form of an aqueous suspension or emulsion at a water application rate equating to […], with addition of 0.2% wetting agent. After the treatment, the pots are placed in a greenhouse and kept under good growth conditions for the trial plants. The damage to the test plants is scored visually after a test period of 3 weeks by comparison with untreated controls (herbicidal activity in percent (%): 100% activity=the plants have died, 0% activity=like control plants).

STEME [11] = assay: Pre-emergence action against STEME; type: in vivo, Stellaria media; settings: Dosage 320 g/ha, pre-emergence
Method in brief: as §2

MATIN [12] = assay: Pre-emergence action against MATIN; type: in vivo, Matricaria inodora; settings: Dosage 320 g/ha, pre-emergence
Method in brief: as §2

STEME [13] = assay: Post-emergence action against STEME; type: in vivo, Stellaria media; settings: post-emergence, dosage 80 g/ha
Method in brief: as §1

MATIN [14] = assay: Post-emergence action against MATIN; type: in vivo, Matricaria inodora; settings: post-emergence, dosage 80 g/ha, visual assessment about 3 weeks after treatment vs untreated controls
Method in brief: as §1

POLCO = assay: Pre-emergence action against POLCO; type: in vivo, Polygonum convolvulus; settings: Fallopia convolvulus, 504 h; Dosage 320 g/ha, pre-emergence
Method in brief: as §2

SETVI = assay: Pre-emergence action against SETVI; type: in vivo, Setaria viridis; settings: Setaria viridis, 504 h; pre-emergence, dosage 320 g/ha, scored visually after 3 weeks vs untreated controls; read-out: SETVI (Table B8, pre-emergence herbicidal activity)
Method in brief: as §2

PHBPU [15] = assay: Pre-emergence action against PHBPU; type: in vivo, Pharbitis purpurea; settings: Ipomoea purpurea, 504 h; Dosage 320 g/ha, pre-emergence
Method in brief: as §2

VERPE [16] = assay: Post-emergence action against VERPE; type: in vivo, Veronica persica; settings: Veronica persica, 504 h, dosage 80 g/ha
Method in brief: as §1

ALOMY = assay: Pre-emergence action against ALOMY; type: in vivo, Alopecurus myosuroides; settings: Alopecurus myosuroides, 504 h; dosage 320 g/ha; pre-emergence; scored visually after 3 weeks vs untreated controls; 100% = plants have died, 0% = like control plants; read-out: Pre-emergence action against ALOMY (herbicidal activity in percent)
Method in brief: as §2

Compound | Post-emergence action against ABUTH (herbicidal action in percent) (ABUTH [1]) [%] | Pre-emergence action against AMARE (herbicidal activity) (AMARE [2]) [%] | Post-emergence action against PHBPU (PHBPU [4]) | Post-emergence action against AMARE (herbicidal action in percent) (AMARE [6]) [%] | Pre-emergence action against ECHCG (herbicidal activity) (ECHCG [7]) [%] | Pre-emergence action against ABUTH (herbicidal activity) (ABUTH [8]) [%] | Pre-emergence action against VIOTR (VIOTR [9]) [%] | Pre-emergence action against VERPE (VERPE [10]) [%] | Pre-emergence action against DIGSA (herbicidal activity) (DIGSA) [%] | Pre-emergence action against STEME (STEME [11]) [%] | Pre-emergence action against MATIN (MATIN [12]) [%] | other results
Cn1nnnc1NC(=O)c1ccc(C(F)(F)F)c(C(=O)c2cc(F)cc(F)c2)c1Cl [1-287] | 80 | 100 | 90 | 90 | 80 | 100 | 100 | 100 | 80 |  |  | Post-emergence action against VIOTR (VIOTR [3]): 90; Post-emergence action against ECHCG (herbicidal action in percent) (ECHCG [5]): 90%; Post-emergence action against AVEFA (herbicidal action in percent) (AVEFA): 80%
CCn1nnnc1NC(=O)c1ccc(C(F)(F)F)c(C(=O)C2CCCCC2)c1Cl [2-155] |  | 100 |  | 80 | 80 | 100 | 100 | 80 | 90 | 100 | 100 | 
Cn1nnnc1NC(=O)c1ccc(C(F)(F)F)c(C(=O)C2CCCCC2)c1Cl [1-155] | 90 | 80 | 80 | 90 |  | 100 | 100 |  | 90 | 90 | 90 | Post-emergence action against STEME (STEME [13]): 80; Post-emergence action against MATIN (herbicidal action in percent) (MATIN [14]): 80%
Cc1ccc(C(=O)Nc2nnnn2C)c(C)c1C(=O)C1CC1 [1-3] |  |  |  |  |  |  |  |  | 90 |  |  | pest or weed control at 80 g/ha (ABUTH [1]; Abutilon theophrasti, 504 h, read-out: Post-emergence action against ABUTH (herbicidal action in percent)): 100%; pest or weed control at 320 g/ha (STEME [11]; Stellaria media, 504 h): 90%; pest or weed control at 320 g/ha (AMARE [2]; Amaranthus retroflexus, 504 h, read-out: Pre-emergence action against AMARE (herbicidal activity)): 100%; pest or weed control at 320 g/ha (POLCO): 80%; pest or weed control at 320 g/ha (SETVI): 90%; pest or weed control at 80 g/ha (PHBPU [4]; Ipomoea purpurea, 504 h): 90%; pest or weed control at 80 g/ha (AMARE [6]; Amaranthus retroflexus, 504 h, read-out: Post-emergence action against AMARE (herbicidal action in percent)): 100%; pest or weed control at 320 g/ha (ECHCG [7]; Echinochloa crus-galli, 504 h, read-out: Pre-emergence action against ECHCG (herbicidal activity)): 90%; pest or weed control at 320 g/ha (ABUTH [8]; Abutilon theophrasti, 504 h, read-out: Pre-emergence action against ABUTH (herbicidal activity)): 90%; pest or weed control at 320 g/ha (PHBPU [15]): 80%; pest or weed control at 80 g/ha (STEME [13]; Stellaria media, 504 h): 90%; pest or weed control at 320 g/ha (VIOTR [9]; Viola tricolor, 504 h): 90%; pest or weed control at 320 g/ha (VERPE [10]; Veronica persica, 504 h): 90%; pest or weed control at 80 g/ha (VERPE [16]): 90%; pest or weed control at 320 g/ha (ALOMY): 90%; pest or weed control at 80 g/ha (MATIN [14]; Tripleurospermum inodorum, 504 h, read-out: Post-emergence action against MATIN (herbicidal action in percent)): 90%; pest or weed control at 320 g/ha (MATIN [12]; Tripleurospermum inodorum, 504 h): 100%
